# Literature values as cited in patent publication US20060148728A1 (priority 2000, published 2006).
# Settings: in vivo; cited from earlier work
smiles,measurement,value
COc1cc([C@@H]2c3cc4c(cc3[C@@H](O[C@@H]3O[C@@H]5CO[C@@H](C)O[C@H]5[C@H](O)[C@H]3O)[C@H]3COC(=O)[C@H]23)OCO4)cc(OC)c1O [Etoposide],Bioavailability of oral etoposide,40-75%
